Reference: patent US8399497B2, “Thiazole derivatives and use thereof” (Merck Serono SA, priority 2005, dated 2013)
Where two headings read alike, the source gives them in different places.

Experiments:
[1] = tested on: PI3K induced Akt/PKB phosphorylation in Raw 264-7 macrophages; assay: Cell based ELISA of Akt/PKB phosphorylation in macrophages after Complement 5a stimulation; conditions: Mus musculus, RAW264.7, 5 min, 50 nM Complement 5a for 5 minutes, read-out: Cell Assay (P-Akt, Elisa) IC50
Experimental: b) Cell Based ELISA to Monitor PI3K Inhibition:
The efficacy of compounds of the invention in inhibiting the PI3K induced Akt/PKB phosphorylation may be tested in the following cell based assay.
Measurement of Akt/PKB phosphorylation in macrophages after stimulation with Complement 5a: Raw 264: Raw 264-7 macrophages (cultured in DMEM-F12 medium containing 10% Fetal Calf serum and antibiotics) are plated at 20,000 cells/well in a 96 MTP 24 h before cell stimulation. Prior to the stimulation with 50 nM of Complement 5a during 5 minutes, Cells are serum starved for 2 h, and pretreated with inhibitors for 20 minutes. After stimulation cells are fixed in 4% formaldehyde for 20 minutes and washed 3 times in PBS containing 1% Triton X-100 (PBS/Triton). Endogenous peroxidase is blocked by a 20 minutes incubation in 0.6% H2O2 and 0.1% Sodium Azide in PBS/Triton and washed 3 times in PBS/Triton. Cells are then blocked by 60 minutes incubation with 10% fetal calf serum in PBS/Triton. Next, phosphorylated Akt/PKB is detected by an overnight incubation at 4° C. with primary antibody (anti phospho Serine 473 Akt IHC, Cell Signaling) diluted 800-fold in PBS/Triton, containing 5% bovine serum albumin (BSA). After 3 washes in PBS/Triton, cells are incubated for 60 minutes with a peroxidase conjugated goat-anti-rabbit secondary antibody (1/400 dilution in PBS/Triton, containing 5% BSA), washed 3 times in PBS/Triton, and 2 times in PBS and further incubated in 100 μl of luminescent substrate reagent solution (Pierce) for 2 minutes, followed by the reading (1 s/well).
The values indicated in Table III below reflect the percentage of inhibition of AKT phoshorylation as compared to basal level. Said values show a clear effect of the thiazole compounds on the activation of AKT phosphorylation in macrophages.

Neutrophil recruitment = assay: Thioglycollate-induced peritoneal cavity cell recruitment model, neutrophils; format: in vivo, C3H mice; conditions: 10 mg/kg orally, lavage 4 h after thioglycollate
Experimental: (§1) Thioglycollate-Induced Pertioneal Cavity Cell Recruitment Model
(§2) The in vivo efficacy of compounds of the invention in inhibiting the migration of leukocytes upon intraperitoneal challenge of thioglycollate may be tested with the following assay.
(§3) 8-10 weeks old female C3H mice are fasted during 18 hours. 15 minutes prior the intraperitoneal injection of thioglycollate (1.5%, 40 ml/kg), the mice are treated orally with Thiazoles of Formula (I). Control mice receive CMC/Tween as vehicle (10 ml/kg). The mice are then sacrificed by CO2 inhalation and the peritoneal cavity is washed two times with 5 ml of ice-cold PBS/1 mM EDTA. The lavages are done 4 hours or 48 hours after thioglycollate challenge to evaluate neutrophils or macrophages recruitment, respectively. The white blood cells (neutrophils, lymphocytes or macrophages) are counted using a Beckman Coulter® A ^cT 5diff™. Dexamethasone is used as reference drug.

Macrophage recruitment = assay: Thioglycollate-induced peritoneal cavity cell recruitment model, macrophages; format: in vivo, C3H mice; conditions: 10 mg/kg orally, lavage 48 h after thioglycollate
Experimental: as §1, §2, §3

[2] = tested on: Collagen-induced arthritis; assay: Collagen-induced arthritis, CIA (mouse); format: in vivo, DBA/1 mice; conditions: twice a day, 7 days
[3] = target: Human recombinant GST-PI3Kγ (Homo sapiens, UniProt P48736); assay: High throughput PI3K lipid kinase assay (SPA, neomycin-coated beads); format: biochemical
Chain of Human recombinant GST-PI3Kγ (P48736 whole entry): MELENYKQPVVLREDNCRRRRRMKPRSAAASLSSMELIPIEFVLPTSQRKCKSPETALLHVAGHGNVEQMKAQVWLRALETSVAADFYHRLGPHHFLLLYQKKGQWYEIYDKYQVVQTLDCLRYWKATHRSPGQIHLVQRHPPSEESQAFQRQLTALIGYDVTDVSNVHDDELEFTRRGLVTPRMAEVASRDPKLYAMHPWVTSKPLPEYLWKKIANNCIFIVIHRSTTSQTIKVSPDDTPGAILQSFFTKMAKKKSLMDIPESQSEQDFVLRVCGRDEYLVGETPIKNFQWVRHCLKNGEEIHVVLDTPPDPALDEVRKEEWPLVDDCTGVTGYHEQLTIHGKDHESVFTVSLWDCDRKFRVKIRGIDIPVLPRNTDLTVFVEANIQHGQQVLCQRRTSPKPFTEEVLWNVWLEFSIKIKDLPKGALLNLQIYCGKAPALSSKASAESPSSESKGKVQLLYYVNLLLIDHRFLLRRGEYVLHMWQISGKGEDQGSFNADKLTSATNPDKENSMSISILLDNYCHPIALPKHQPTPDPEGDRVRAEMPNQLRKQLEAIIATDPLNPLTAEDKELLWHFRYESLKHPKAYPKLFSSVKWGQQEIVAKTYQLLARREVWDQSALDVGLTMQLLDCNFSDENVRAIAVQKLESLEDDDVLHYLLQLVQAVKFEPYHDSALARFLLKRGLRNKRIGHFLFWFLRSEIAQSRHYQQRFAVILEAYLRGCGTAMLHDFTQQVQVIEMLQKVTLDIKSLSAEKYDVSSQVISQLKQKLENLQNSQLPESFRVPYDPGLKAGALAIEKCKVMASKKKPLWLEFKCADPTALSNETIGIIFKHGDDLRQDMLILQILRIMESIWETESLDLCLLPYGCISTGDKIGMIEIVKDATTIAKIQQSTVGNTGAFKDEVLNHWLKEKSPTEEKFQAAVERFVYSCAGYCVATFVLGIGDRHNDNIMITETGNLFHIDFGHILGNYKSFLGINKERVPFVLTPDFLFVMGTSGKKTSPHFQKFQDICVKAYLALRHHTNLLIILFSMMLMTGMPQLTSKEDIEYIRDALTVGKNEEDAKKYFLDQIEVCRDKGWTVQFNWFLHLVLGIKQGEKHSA
Excerpt: a) High Throughput PI3K Lipid Kinase Assay (Binding Assay):
The efficacy of compounds of the invention in inhibiting the PI3K induced-lipid phosphorylation may be tested in the following binding assay.
The assay combines the scintillation proximity assay technology (SPA, Amersham) with the capacity of neomycin (a polycationic antibiotic) to bind phospholipids with high affinity and specificity. The Scintillation Proximity Assay is based on the properties of weakly emitting isotopes (such as ^3H, ^125I, ^33P). Coating SPA beads with neomycin allows the detection of phosphorylated lipid substrates after incubation with recombinant PI3K and radioactive ATP in the same well, by capturing the radioactive phospholipids to the SPA beads through their specific binding to neomycin.
To a 384 wells MTP containing 5 μl of the test compound of Formula (I) (solubilized in 6% DMSO; to yield a concentration of 100, 30, 10, 3, 1, 0.3, 0.1, 0.03, 0.01, 01 μM of the test compound), the following assay components are added. 1) 5 μl (58 ng) of Human recombinant GST-PI3Kγ (in Hepes 40 mM, pH 7.4, DTT 1 mM and ethylenglycol 5%) 2) 10 μl of lipid micelles and 3) 10 μl of Kinase buffer ([^33P]γ-ATP 45 μM/60 nCi, MgCl2 30 mM, DTT 1 mM, β-Glycerophosphate 1 mM, Na3VO4 100 μM, Na Cholate 0.3%, in Hepes 40 mM, pH 7.4). After incubation at room temperature for 180 minutes, with gentle agitation, the reaction is stopped by addition of 60 μl of a solution containing 100 μg of neomycin-coated PVT SPA beads in PBS containing ATP 10 mM and EDTA 5 mM. The assay is further incubated at room temperature for 60 minutes with gentle agitation to allow binding of phospholipids to neomycin-SPA beads. After precipitation of the neomycin-coated PVT SPA beads for 5 minutes at 1500×g, radioactive PtdIns(3)P is quantified by scintillation counting in a Wallac MicroBeta™ plate counter.
The values indicated in Table II below refer to the IC50 (μM) with respect to PI3Kγ, i.e. the amount necessary to achieve 50% inhibition of said target. Said values show a considerable inhibitory potency of thiazole compounds with regard to PI3Kγ.

CC(=O)Nc1nc(C)c(-c2csc(S(=O)(=O)N3CCC(O)CC3)c2)s1 [Example 39, N-(5-{5-[(4-hydroxypiperidin-1-yl)sulfonyl]-3-thienyl}-4-methyl-1,3-thiazol-2-yl)acetamide]
IC50 [1]: 50 nM
IC50 ([1]; re-testing): 320 nM
% inhibition of Neutrophil recruitment at 10 mg/kg after 4 h (Neutrophil recruitment): 48%
% inhibition of Macrophage recruitment at 10 mg/kg after 48 h (Macrophage recruitment): 43%
Reduction of total clinical score [%] ([2]; 10 mg/kg orally): 30%
Reduction of total clinical score [%] ([2]; 30 mg/kg orally): 50%
Reduction of total clinical score [%] ([2]; 60 mg/kg orally): 75%
IC50 [3]: 14 nM
